Consider five compounds from patent publication US4242510A, “Cephalosporin compounds and processes for the preparation thereof” (Fujisawa Pharmaceutical Co., Ltd., priority 1976, dated 1980).

Holding throughout (test): In vitro antibacterial activity, two-fold agar-plate dilution method
What all share (format): cell-based

Experiment [1] deals with Staphylococcus aureus 209-P JC-1. The settings on record: HI-agar, 37° C., 20 hours. As to the method:
(§1) In vitro antibacterial activity was determined by the two-fold agar-plate dilution method as described below. One loopful of an overnight culture of each test strain in Trypticase-soy broth (approximately 10^6 viable cells per ml.) was streaked on heat infusion agar (HI-agar) containing graded concentrations of antibiotics, and the minimal inhibitory concentration (MIC) was expressed in terms of μg./ml. after incubation at 37° C. for 20 hours.

Another experiment concerns Esherichia coli 327. The note with it: HI-agar, 37° C., 20 hours. Here is the method: as §1
In experiment [2] the test system is Proteus vulgaris LAM-1025. The settings on record: LAM1025, HI-agar, 37° C., 20 hours. Here is the method:
as §1

The test system of experiment [3] is Pseudmonas aeruginose NCTC-10490. The settings on record: HI-agar, 37° C., 20 hours. Here is the method: as §1
For the next experiment, the system named is Proteus mirabilis 525. The settings on record: HI-agar, 37° C., 20 hours. As to the method: as §1

Each structure is given as a SMILES string. ≈ marks a conversion by molar mass, not a printed value.

In the case of `CON=C(C(=O)NC1C(=O)N2C(C(=O)O)=C(CSc3nnnn3C)CS[C@H]12)C1=CSCCO1` (some centres unmarked) [compound 2, 7-[2-(2,3-dihydro-1,4-oxathiin-6-yl)-2-methoxyiminoacetamido]-3-(1-methyl-1H-tetrazol-5-yl)thiomethyl-3-cephem-4-carboxylic acid], the MIC (in general, the smallest concentration in the dilution series that meets the test's criterion for growth inhibition) stood at 3.13 µg/mL (≈ 6.09 µM) in experiment [1]; 0.2 µg/mL (≈ 0.389 µM) against Esherichia coli 327; 25 µg/mL (≈ 48.7 µM) in experiment [2]; 12.5 µg/mL (≈ 24.3 µM) in experiment [3]; 0.78 µg/mL (≈ 1.52 µM) in the experiment on Proteus mirabilis 525.
For the compound `CON=C(C(=O)NC1C(=O)N2C(C(=O)O)=CCS[C@H]12)C1=CSCCS1` (some centres unmarked) [compound 5, 7-[2-(2,3-dihydro-1,4-dithiin-5-yl)-2-methoxyiminoacetamido]-3-cephem-4-carboxylic acid], the values for the MIC in experiment [1], in experiment [2] and in experiment [3] were 6.25 µg/mL (≈ 15.6 µM), 3.13 µg/mL (≈ 7.8 µM) and 400 µg/mL (≈ 996 µM), respectively.
On to `CON=C(C(=O)NC1C(=O)N2C(C(=O)O)=C(CSc3nncs3)CS[C@H]12)C1=CSCCS1` (some centres unmarked) [compound 4, 7-[2-(2,3-dihydro-1,4-dithiin-5-yl)2-methoxyiminoacetamido]-3-(1,3,4-thiadiazol-2-yl)thiomethyl-3-cephem-4-carboxylic acid], for which the MIC in experiment [1] worked out at 0.39 µg/mL (≈ 0.734 µM); against Esherichia coli 327 it was 0.78 µg/mL (≈ 1.47 µM); in experiment [2], 6.25 µg/mL (≈ 11.8 µM); in experiment [3], 50 µg/mL (≈ 94 µM); against Proteus mirabilis 525 it was 3.13 µg/mL (≈ 5.89 µM).
In the same order, the values of `CON=C(C(=O)NC1C(=O)N2C(C(=O)O)=C(COC(N)=O)CS[C@H]12)C1=CSCCO1` (some centres unmarked) [compound 3, 7-[2-(2,3-dihydro-1,4-oxathiin-6-yl)-2-methoxyiminoacetamido]-3-carbamoyloxymethyl-3-cephem-4-carboxylic acid] are 6.25 µg/mL (≈ 13.6 µM), 0.78 µg/mL (≈ 1.7 µM), 100 µg/mL (≈ 218 µM), 50 µg/mL (≈ 109 µM) and 0.78 µg/mL (≈ 1.7 µM).
In the same order, the values of `CO/N=C(\C(=O)NC1C(=O)N2C(C(=O)O)=C(COC(C)=O)CSC12)C1=CSCCO1` (centres unmarked) [compound 1, 7-[2-(2,3-dihydro-1,4-oxathiin-6-yl)-2-methoxyiminoacetamido]cephalosporanic acid] are 3.13 µg/mL (≈ 6.84 µM), 0.78 µg/mL (≈ 1.7 µM), 12.5 µg/mL (≈ 27.3 µM), 25 µg/mL (≈ 54.6 µM) and 0.78 µg/mL (≈ 1.7 µM).
